“And” between values parts separate entries of the source, which are not always exact repeats. Equal values may be shown once. Where a name gives a salt, the structure may show the parent alone. Read-outs that look alike come from different tables or passages of the source.
Molecular target: HIV-1 protease (Human immunodeficiency virus type 1 group M subtype B, UniProt P04585)
Assay: biochemical
Details: for inhibition at 20 µM: read-out: HIV-1 Protease % Inhib, dose 20.000 uM; for inhibition at 200 µM: read-out: HIV-1 Protease % Inhib, dose 200.000 uM; for IC50: HIV-1 Protease IC50
Method: The HIV protease screening assay is based on fluorescently labeled substrate which can be resolved from nonlabeled cleavage product using special beads coated with streptavidin. The substrate is biotinylated at the amino terminal arginine and fluorescently labeled with fluorescein isothiocynate (FITC) at the carboxyl terminal lysine. This assay has been employed to detect novel, nonpeptidic inhibitors of HIV-1 protease. Substrate (20 μl of 0.2 μM), sample (10 μl of desired concentration), and enzyme (10 μl of 0.1 μM) are added to a 96 well pandex plate. The assay is run in 0.1M sodium acetate buffer at pH 5.5 in the presence of 1.0M sodium chloride and 0.05% NP-40 with incubated in the dark for one hour at room temperature. Strepavidin coated polystyrene beads {40 μl of 0.1% (w/v)} are added and the plate is incubated in the dark for an additional half hour. The labeled cleavage product is separated from the unreacted substrate via filtration and is read on the Idexx screen machine. The data are analyzed by appropriate computer algorithms to ascertain percent inhibition values.

[1] = read-out: HIV-1 Protease % Inhib, dose 10.000 uM
[2] = read-out: HIV-1 Protease % Inhib, dose 100.000 uM
[3] = dose 1.000 uM, read-out: HIV-1 Protease % Inhib
[4] = dose 10.000 uM, read-out: HIV-1 Protease % Inhib
[5] = dose 100.000 uM, read-out: HIV-1 Protease % Inhib
[6] = read-out: HIV-1 Protease % Inhib, dose 1.000 uM

Compound	inhibition at 10 µM [1]	inhibition at 100 µM [2]	inhibition at 1 µM [6]	other results
O=c1oc2ccccc2c(O)c1CCc1ccccc1 [Example 1, 4-Hydroxy-3-phenethylcoumarin]	15.3%	66.9%		inhibition at 20 µM: 51.6%; inhibition at 200 µM: 92.8%
O=c1oc2ccccc2c(O)c1CCCc1ccccc1 [Example 2, 4-Hydroxy-3-(3-phenylpropyl)coumarin]	15.6%	63.6%		inhibition at 20 µM: 48.1%; inhibition at 200 µM: 97.5%
O=c1oc2ccccc2c(O)c1Cc1ccc2ccccc2c1 [Example 3, 4-Hydroxy-3-(2-naphthylmethyl)coumarin]				inhibition at 1 µM [3]: < 10%; inhibition at 10 µM [4]: < 10%; inhibition at 100 µM [5]: 48.8%
O=c1oc2ccccc2c(O)c1CC(c1ccccc1)c1ccccc1 [Example 4, 4-Hydroxy-3-(2,2-diphenylethyl)-coumarin]	12.4%	45.3%	< 10%	
CC(Cc1c(O)c2ccccc2oc1=O)c1ccccc1 (centres unmarked) [Example 5, 4-Hydroxy-3-(2-phenylpropyl)coumarin]	55.4%	95%	15.4%	
CC(c1ccccc1)c1c(O)c2ccccc2oc1=O (stereo not drawn) [Example 6, 4-Hydroxy-3-(α-methylbenzyl)-coumarin]	29.2%	88.5%		inhibition at 20 µM: 65.6%; inhibition at 200 µM: 75.2%
O=c1oc2ccccc2c(O)c1C(c1ccccc1)c1ccccc1 [Example 7, 4-Hydroxy-3-diphenylmethylcoumarin]	42.5%	96.3%	< 10%	IC50: 21.2 µM
CC(O)CC(c1ccccc1)c1c(O)c2ccccc2oc1=O (centres unmarked) [Example 8, 4-Hydroxy-3-(3-hydroxy-1-phenylbutyl)-coumarin]	23.7%	93.3%	< 10%	IC50: 41.7 µM
CC(C)C(c1ccccc1)c1c(O)c2ccccc2oc1=O (centres unmarked) [Example 9, 4-Hydroxy-3-(2-methyl-1-phenylpropyl)-coumarin]	65%	98.3%	12.1%	IC50: 10.6 µM
CC(C)C(c1ccc(Br)cc1)c1c(O)c2ccccc2oc1=O (centres unmarked) [Example 12, 3-(1-(4-Bromophenyl)-2-methylpropyl)-4-hydroxycoumarin]		87.4%		IC50: 12.1 µM; inhibition at 0.098 µM (read-out: HIV-1 Protease % Inhib, dose 0.098 uM): < 10%; inhibition at 0.196 µM (read-out: HIV-1 Protease % Inhib, dose 0.196 uM): < 10%; inhibition at 0.39 µM (read-out: HIV-1 Protease % Inhib, dose 0.390 uM): < 10%; inhibition at 0.78 µM (read-out: HIV-1 Protease % Inhib, dose 0.780 uM): 14%; inhibition at 1.56 µM (read-out: HIV-1 Protease % Inhib, dose 1.560 uM): 17.1%; inhibition at 3.13 µM (read-out: HIV-1 Protease % Inhib, dose 3.130 uM): 25.4%; inhibition at 6.25 µM (read-out: HIV-1 Protease % Inhib, dose 6.250 uM): 31.9%; inhibition at 12.5 µM (read-out: HIV-1 Protease % Inhib, dose 12.500 uM): 53.8%; inhibition at 25 µM (read-out: HIV-1 Protease % Inhib, dose 25.000 uM): 66.5%; inhibition at 50 µM (read-out: HIV-1 Protease % Inhib, dose 50.000 uM): 74.7%; inhibition at 200 µM: 87%
O=c1oc2ccccc2c(O)c1C(Cc1ccccc1)c1ccccc1 (centres unmarked) [Example 13, 3-(1,2-Diphenylethyl)4-hydroxycoumarin]	34.7%	74.6%	< 10%	
CC(C)CC(c1ccccc1)c1c(O)c2ccccc2oc1=O (centres unmarked) [Example 14, 4-Hydroxy-3-(3-methyl-1-phenylbutyl)-coumarin]	64.6%	87.1%	32.2%	
O=c1oc2ccccc2c(O)c1C(c1ccccc1)C1CC1 (centres unmarked) [Example 15, 3-(Cyclopropylphenylmethyl)-4-hydroxycoumarin]	89.6%		43.8%	IC50: 1.25 µM
O=c1oc2ccccc2c(O)c1C(CCc1ccccc1)c1ccccc1 (centres unmarked) [Example 16, 4-Hydroxy-3-(1,3-diphenylpropyl)-coumarin]	48.3%		< 10%	
O=c1oc2ccccc2c(O)c1C(CC1CCCCC1)c1ccccc1 (centres unmarked) [Example 17, 3-(2-Cyclohexyl-1-phenylethyl)-4-hydroxycoumarin]	27.6%		< 10%	
CCCC(c1ccc(C)cc1)c1c(O)c2ccccc2oc1=O (centres unmarked) [Example 18, 4-Hydroxy-3-(1-(4-methylphenyl)-butyl)-coumarin]	52.5%		13.4%	
CCCC(c1ccc(CC)cc1)c1c(O)c2ccccc2oc1=O (centres unmarked) [Example 19, 3-(1-(4-Ethylphenyl)-butyl)-4-hydroxycoumarin]	36.8%		< 10%	
CCC(c1c(O)c2ccccc2oc1=O)c1cccc2ccccc12 (centres unmarked) [Example 20, 4-Hydroxy-3-(1-(1-naphthyl)-propyl)-coumarin]	20.3%	79.8%	< 10%	
O=c1oc2ccccc2c(O)c1C(=Cc1ccccc1)c1ccccc1 [Example 21, 3-(1,2-Diphenylethenyl)4-hydroxycoumarin]				inhibition at 1 µM [3]: < 10%; inhibition at 10 µM [4]: 12.1%; inhibition at 100 µM [5]: 74.3%
CC(c1cccc(C(=O)NCC(=O)OC(C)(C)C)c1)c1c(O)c2ccccc2oc1=O (centres unmarked) [Example 22, 4-Hydroxy-3-[1-[3-[[[(1,1-dimethylethoxycarbonyl)methyl]amino]carbonyl]phenyl]ethyl]-coumarin]	< 10%	58.7%	< 10%	
CCC(c1cccc(NC(=O)CCNC(=O)OC(C)(C)C)c1)c1c(O)c2ccccc2oc1=O (centres unmarked) [Example 23, 4-Hydroxy-3-[1-[3-[[3-[(1,1-dimethylethoxycarbonyl)amino]-1-oxopropyl]amino]phenyl]propyl]-coumarin]	96.6%	104%	46.6%	IC50: 0.66 µM and 0.7 µM; HIV-1 Protease % Inhib (dose 100.000 uM): 104.2%
CCC(c1cccc(NC(=O)CCN)c1)c1c(O)c2ccccc2oc1=O (centres unmarked) [Example 24, 3-[1-[3-[(3-Amino-1-oxopropyl)amino]phenyl]propyl]-4-hydroxy-coumarin, trifluoroacetate (salt)]	24.2%	83.7%	< 10%	
CCC(c1cccc(NC(=O)CCc2ccccc2)c1)c1c(O)c2ccccc2oc1=O (centres unmarked) [Example 25, 4-Hydroxy-3-[1-[3-[(1-oxo-3-phenylpropyl)amino]phenyl]propyl]-coumarin]	78.6%	115%	11.4%	IC50: 5.2 µM
CC(c1cccc(C(=O)NCc2nc3ccccc3[nH]2)c1)c1c(O)c2ccccc2oc1=O (centres unmarked) [Example 26, Coumarin, 3-[1-[3-[[[(2-benzimidazo131)methyl]amino]carbonyl]phenyl]ethyl]-4-hydroxy]	53.6%	95%	< 10%	IC50: 20.3 µM; HIV-1 Protease % Inhib (dose 100.000 uM): 80%
CC(c1cccc(C(=O)NCc2ccccn2)c1)c1c(O)c2ccccc2oc1=O (centres unmarked) [Example 27, Coumarin, 4-hydroxy-3-[1-[3-[[[(2-pyridinyl)methyl]amino]carbonyl]phenyl]ethyl]-]	< 10%	72%	< 10%	
CC(c1cccc(C(=O)NCc2ccccc2)c1)c1c(O)c2ccccc2oc1=O (centres unmarked) [Example 28, Coumarin, 4-hydroxy-3-[1-[3-[[(phenylmethyl)amino]carbonyl]phenyl]ethyl]-]	17.9%	81%	< 10%	
CC(c1cccc(C(=O)NC2c3ccccc3CC2O)c1)c1c(O)c2ccccc2oc1=O (centres unmarked) [Example 29, Benzamide, N-(2,3-dihydro-2-hydroxy-1H-inden-1-yl)-3-[1-(4-hydroxy-2-oxo-2H-1-benzopyran-3-yl)ethyl]-]	54.2%	98.4%	< 10%	
CCC(C)C(NC(=O)c1cccc(C(C)c2c(O)c3ccccc3oc2=O)c1)C(=O)NCc1ccccn1 (centres unmarked) [Example 30, Benzamide, 3-[1-(4-hydroxy-2-oxo-2H-1-benzopyran-3-yl)ethyl]-N-[2-methyl-1-[[(2-pyridinylmethyl)amino]carbonyl]butyl]-]	65.3%	109%	< 10%	
CCCCNC(=O)c1cccc(C(C)c2c(O)c3ccccc3oc2=O)c1 (centres unmarked) [Example 31, Coumarin, 3-[1-[3-[(butylamino)carbonyl]phenyl]ethyl]-4-hydroxy-]	< 10%	53.7%	< 10%	
CC(c1cccc(C(=O)NCC(=O)N2CCOCC2)c1)c1c(O)c2ccccc2oc1=O (centres unmarked) [Example 32, Coumarin, 4-hydroxy-3-[1-[3-[[[[(4-morpholino)carbonyl]methyl]amino]carbonyl]phenyl]ethyl]-]	< 10%	46.5%	< 10%	

— patent US5686486A, “4-hydroxy-benzopyran-2-ones and 4-hydroxy-cycloalkyl[b]pyran-2-ones useful to treat retroviral infections” (priority 1995, dated 1997)
